{"source": "patent US6011006A", "about": "“Method of treating hot flushes with hexapeptides” (Novo Nordisk A/S, priority 1998, dated 2000)", "system": "depressor response to spinal cord stimulation", "assay": "Inhibition of depressor response to spinal cord stimulation in the pithed rat", "format": "in vivo, Sprague Dawley rats", "conditions": "for mean reduction (% of maximal depressor response): pithed male Sprague Dawley rat, intravenous, given prior to spinal cord stimulation; for effect when repeated a second time after a second non-antagonized depressor response: all animals examined", "experimental": "Male Sprague Dawley rats (300±25 g) were anesthetized with pentobarbital sodium (50 mg/kg i.p.) and polyethylene catheters were positioned in both femoral veins for the intravenous administration of drugs, such as nociceptin and analogues, and into the left femoral artery in order to measure arterial blood pressure and heart rate.\nThe trachea was cannulated with polyethylene tubing and the rat was pithed, ventilated and drug treated as described by Nuki Y. et al. (Effects of Dorsal Rhizotomy on Depressor Response to Spinal Cord Stimulation Mediated by Endogenous Calcitonin Gene-related Peptide in the Pithed Rat. J. Neurosurg. 1993; 79: 899-904).\nPrior administration of nociceptin and related analogs inhibited the depressor response to spinal cord stimulation accordingly: […]", "note": "Where a SMILES comes first, the peptide text is derived from it.", "data": [{"smiles": "CC(=O)N[C@@H](CCCNC(=N)N)C(=O)N[C@@H](Cc1ccc(O)cc1)C(=O)N[C@@H](Cc1ccc(O)cc1)C(=O)N[C@@H](CCCNC(=N)N)C(=O)N[C@@H](Cc1c[nH]c2ccccc12)C(=O)N[C@@H](CCCCN)C(N)=O", "note": "[Ac--Arg--Tyr--Tyr--Arg--Trp--Lys--NH2, Ac-Arg-Tyr-Tyr-Arg-Trp-Lys-NH2] (Ac-RYYRWK-NH2)", "values": [{"measurement": "mean reduction (% of maximal depressor response)", "setting": "dose 0.1 mg/kg", "value": "54 ± 12 % of maximal depressor respons"}, {"measurement": "mean reduction (% of maximal depressor response)", "setting": "dose 0.3 mg/kg", "value": "32 ± 7 % of maximal depressor respons"}, {"measurement": "effect when repeated a second time after a second non-antagonized depressor response", "setting": "pithed rat", "value": "seen when repeated a second time"}, {"measurement": "dose-response of inhibition of depressor response", "setting": "pithed rat, doses 0.1 and 0.3 mg/kg", "value": "clear dose-response"}]}, {"smiles": "CC(C)C[C@H](NC(=O)[C@H](CCCCN)NC(=O)[C@H](CCCN=C(N)N)NC(=O)[C@H](C)NC(=O)[C@H](CO)NC(=O)[C@H](CCCCN)NC(=O)[C@H](CCCN=C(N)N)NC(=O)[C@H](C)NC(=O)CNC(=O)[C@@H](NC(=O)[C@H](Cc1ccccc1)NC(=O)CNC(=O)CNC(=O)[C@@H](N)Cc1ccccc1)[C@@H](C)O)C(=O)N[C@@H](C)C(=O)N[C@@H](CC(N)=O)C(=O)N[C@@H](CCC(N)=O)C(=O)O", "note": "[nociceptin, reference compound]", "values": [{"measurement": "mean reduction (% of maximal depressor response)", "setting": "dose 0.1 mg/kg", "value": "29 ± 9 % of maximal depressor respons"}, {"measurement": "mean reduction (% of maximal depressor response)", "setting": "dose 0.3 mg/kg", "value": "23 ± 6 % of maximal depressor respons"}, {"measurement": "effect when repeated a second time after a second non-antagonized depressor response", "setting": "pithed rat", "value": "seen when repeated a second time"}]}]}
